Laboratory results reported in patent US11802120B2, “Fused cyclic urea derivatives as CRHR2 antagonist” (RaQualia Pharma Inc., priority 2018, dated 2023).

biological target: T1, human CRHR2-alpha (Homo sapiens, UniProt Q13324); assay: cAMP functional assay for human CRHR2 (LANCE Ultra cAMP, TR-FRET); format: cell-based; conditions: CHO-K1 cells expressing human CRHR2-alpha, agonist human urocortin2 at EC80, cAMP; read-out: IC50 against CRHR2
T1 sequence (Q13324 1-411): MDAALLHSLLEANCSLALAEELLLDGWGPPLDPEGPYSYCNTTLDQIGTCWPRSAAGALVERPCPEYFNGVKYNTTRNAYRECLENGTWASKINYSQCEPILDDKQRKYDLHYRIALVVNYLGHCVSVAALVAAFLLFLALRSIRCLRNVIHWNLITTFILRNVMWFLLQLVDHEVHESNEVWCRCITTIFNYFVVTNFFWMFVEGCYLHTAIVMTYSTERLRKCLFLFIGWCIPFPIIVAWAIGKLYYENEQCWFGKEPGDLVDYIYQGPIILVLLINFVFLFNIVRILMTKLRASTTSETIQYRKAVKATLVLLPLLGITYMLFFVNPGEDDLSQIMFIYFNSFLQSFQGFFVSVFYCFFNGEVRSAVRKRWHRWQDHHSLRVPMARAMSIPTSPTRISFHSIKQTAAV
Method in brief: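 CHO-K1 cells stably expressing each receptor, serum-starved and cryopreserved, were preincubated with compound 30 min at 25° C in HBSS buffer with 0.5 mM IBMX, pH 7.4, then stimulated 30 min with EC80 agonist (urocortin2 for CRHR2, CRF for CRHR1). cAMP read by TR-FRET; IC50 from percent-inhibition curves.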

IC50, < 300 nM:
N#Cc1ccncc1-n1c(=O)n(C[C@H]2CC[C@H](NC(=O)c3cc(Cl)cnc3C(F)(F)F)CC2)c2ccccc21 [Example 311, 5-chloro-N-((1r,4r)-4-((3-(4-cyanopyridin-3-yl)-2-oxo-2,3-dihydro-1H-benzo[d]imidazol-1-yl)methyl)cyclo-hexyl)-2-(trifluoromethyl) nicotinamide]
CNC(=O)c1ccc(-n2c(=O)n(C[C@H]3CC[C@H](NC(=O)c4cc(Cl)cnc4CC(F)F)CC3)c3ccccc32)cn1 [Example 349, 5-(3-(((1r,4r)-4-(5-chloro-2-(2,2-difluoroethyl)nicotina-mido)cyclohexyl)methyl)-2-oxo-2,3-dihydro-1H-benzo[d]imidazol-1-yl)-N-methyl-picolinamide]
CNC(=O)c1ccc(-n2c(=O)n(C[C@H]3CC[C@H](NC(=O)c4cc(Cl)cnc4C(F)(F)F)CC3)c3cc(F)ccc32)cn1 [Example 290, 5-(3-(((1r,4r)-4-(5-chloro-2-(trifluoromethyl)nico-tinamido)cyclohexyl)methyl)-5-fluoro-2-oxo-2,3-dihydro-1H-benzo[d]imidazol-1-yl)-N-methyl-picolinamide]
Cc1ncc(Cl)cc1C(=O)N[C@H]1CC[C@H](Cn2c(=O)n(-c3ccc4ccncc4c3)c3ccccc32)CC1 [Example 396, 5-chloro-N-((1r,4r)-4-((3-(isoquinolin-7-yl)-2-oxo-2,3-dihydro-1H-benzo[d]imidazol-1-yl)methyl)cyclohexyl)-2-methyl-nicotinamide]
CNC(=O)c1ccc(-n2c(=O)n(C[C@H]3CC[C@H](NC(=O)c4cc(C)ccc4C(F)(F)F)CC3)c3ccccc32)cn1 [Example 492, N-methyl-5-(3-(((1r,4r)-4-(5-methyl-2-(trifluoro-methyl)benzamido)cyclo-hexyl)methyl)-2-oxo-2,3-dihydro-1H-benzo[d]imidazol-1-yl)picolinamide]
Cc1ncc(Cl)cc1C(=O)N[C@H]1CC[C@H](Cn2c(=O)n(-c3ccc(-c4cn[nH]c4)cc3)c3ccccc32)CC1 [Example 581, N-((1r,4r)-4-((3-(4-(1H-pyrazol-4-yl)phenyl)-2-oxo-2,3-dihydro-1H-benzo[d]imidazol-1-yl)methyl)cyclohexyl)-5-chloro-2-methylnicotinamide]
Cn1c(CO)cc2cc(-n3c(=O)n(C[C@H]4CC[C@H](NC(=O)c5cc(Cl)cnc5C(F)F)CC4)c4ccccc43)cnc21 [Example 732, 5-chloro-2-(difluoromethyl)-N-((1r,4r)-4-((3-(2-(hydroxymethyl)-1-methyl-1H-pyrrolo[2,3-b]pyridin-5-yl)-2-oxo-2,3-dihydro-1H-benzo[d]imidazol-1-yl)methyl)cyclohexyl)nicotinamide]
O=C(N[C@H]1CC[C@H](Cn2c(=O)n(-c3ccc(NCC(F)F)nc3)c3ccccc32)CC1)c1cc(Cl)cnc1C(F)F [Example 464, 5-chloro-N-((1r,4r)-4-((3-(6-((2,2-difluoroethyl)amino)pyridin-3-yl)-2-oxo-2,3-dihydro-1H-benzo[d]imidazol-1-yl)methyl)cyclohexyl)-2-(difluoromethyl)nicotinamide]
COc1ccc(-n2c(=O)n(C[C@H]3CC[C@H](NC(=O)c4cc(Cl)cnc4C(F)F)CC3)c3ncccc32)cc1F [Example 722, 5-chloro-2-(difluoromethyl)-N-((1r,4r)-4-((1-(3-fluoro-4-methoxyphenyl)-2-oxo-1H-imidazo[4,5-b]pyridin-3(2H)-yl)methyl)cyclohexyl) nicotinamide]
Cc1ncc(Cl)cc1C(=O)N[C@H]1CC[C@H](Cn2c(=O)n(-c3ccc(N4CC(N(C)C)C4)nc3)c3ccccc32)CC1 [Example 161, 5-chloro-N-((1r,4r)-4-((3-(6-(3-(dimethylamino)azetidin-1-yl)pyridin-3-yl)-2-oxo-2,3-dihydro-1H-benzo[d]imidazol-1-yl)methyl)cyclohexyl)-2-methylnicotinamide]
CCNC(=O)c1ccc(-n2c(=O)n(C[C@H]3CC[C@H](NC(=O)c4cc(Cl)cnc4C)CC3)c3ccccc32)cn1 [Example 182, 5-(3-(((1r,4r)-4-(5-chloro-2-methylnicotinamido)cyclo-hexyl)methyl)-2-oxo-2,3-dihydro-1H-benzo[d]imidazol-1-yl)-N-ethylpicolinamide]
Cc1ncc(Cl)cc1C(=O)N[C@H]1CC[C@H](Cn2c(=O)n(-c3ccncc3C#N)c3ccccc32)CC1 [Example 249, 5-chloro-N-((1r,4r)-4-((3-(3-cyanopyridin-4-yl)-2-oxo-2,3-dihydro-1H-benzo[d]imidazol-1-yl)methyl)cyclohexyl)-2-methylnicotinamide]
Cc1ncc(Cl)cc1C(=O)N[C@H]1CC[C@H](Cn2c(=O)n(-c3ccc(NCC(F)(F)F)nc3)c3ccccc32)CC1 [Example 436, 5-chloro-2-methyl-N-((1r,4r)-4-((2-oxo-3-(6-((2,2,2-trifluoro-ethyl)amino)pyridin-3-yl)-2,3-dihydro-1H-benzo[d]imidazol-1-yl)methyl)cyclohexyl) nicotinamide]
Cc1ncc(Cl)cc1C(=O)N[C@H]1CC[C@H](Cn2c(=O)n(-c3cnc(N(C)C)cn3)c3ccccc32)CC1 [Example 116, 5-chloro-N-((1r,4r)-4-((3-(5-(dimethylamino)pyrazin-2-yl)-2-oxo-2,3-dihydro-1H-benzo[d]imidazol-1-yl)methyl)cyclo-hexyl)-2-methylnicotinamide]
O=C(N[C@H]1CC[C@H](Cn2c(=O)n(-c3cccc4cccnc34)c3ccccc32)CC1)c1cc(Cl)cnc1C(F)F [Example 419, 5-chloro-2-(difluoromethyl)-N-((1r,4r)-4-((2-oxo-3-(quinolin-8-yl)-2,3-dihydro-1H-benzo [d]imidazol-1-yl)methyl)cyclo-hexyl)nicotinamide]
Cn1cc2c(-n3c(=O)n(C[C@H]4CC[C@H](NC(=O)c5cc(Cl)cnc5C(F)F)CC4)c4ccccc43)cccc2n1 [Example 421, 5-chloro-2-(difluoromethyl)-N-((1r,4r)-4-((3-(2-methyl-2H-indazol-4-yl)-2-oxo-2,3-dihydro-1H-benzo[d]imidazol-1-yl)methyl)cyclohexyl)nicotinamide]
O=C(N[C@H]1CC[C@H](Cn2c(=O)n(-c3ccc(NC4COC4)nc3)c3ccccc32)CC1)c1cc(Cl)cnc1C(F)F [Example 481, 5-chloro-2-(difluoromethyl)-N-((1r,4r)-4-((3-(6-(oxetan-3-ylamino)pyridin-3-yl)-2-oxo-2,3-dihydro-1H-benzo [d]imidazol-1-yl)methyl)cyclohexyl)nicotinamide]
Cc1ncc(Cl)cc1C(=O)N[C@H]1CC[C@H](Cn2c(=O)n(-c3ccc4nccnc4c3)c3ccccc32)CC1 [Example 165, 5-chloro-2-methyl-N-((1r,4r)-4-((2-oxo-3-(quinoxalin-6-yl)-2,3-dihydro-1H-benzo[d]imidazol-1-yl)methyl)cyclo-hexyl)nicotinamide]
Cc1ncc(Cl)cc1C(=O)N[C@H]1CC[C@H](Cn2c(=O)n(-c3ccc4[nH]nc(-c5ccccc5)c4c3)c3ccccc32)CC1 [Example 348, 5-chloro-2-methyl-N-((1r,4r)-4-((2-oxo-3-(3-phenyl-1H-indazol-5-yl)-2,3-dihydro-1H-benzo[d]imidazol-1-yl)methyl)cyclohexyl)nicotinamide]
Cc1ncc(Cl)cc1C(=O)N[C@H]1CC[C@H](Cn2c(=O)n(-c3ccc4nn(C)c(C)c4c3)c3ccccc32)CC1 [Example 185, 5-chloro-N-((1r,4r)-4-((3-(2,3-dimethyl-2H-indazol-5-yl)-2-oxo-2,3-dihydro-1H-benzo[d]imidazol-1-yl)methyl)cyclohexyl)-2-methylnicotinamide]
CNC(=O)c1ccc(-n2c(=O)n(C[C@H]3CC[C@H](NC(=O)c4cc(Cl)cnc4C)CC3)c3cc(OC)ccc32)cn1 [Example 194, 5-(3-(((1r,4r)-4-(5-chloro-2-methylnicotinamido)cyclohexyl)methyl)-5-methoxy-2-oxo-2,3-dihydro-1H-benzo[d]imidazol-1-yl)-N-methylpicolinamide]
Cc1ncc(Cl)cc1C(=O)N[C@H]1CC[C@H](Cn2c(=O)n(Cc3ccccc3C#N)c3ccccc32)CC1 [Example 241, 5-chloro-N-((1r,4r)-4-((3-(2-cyanobenzyl)-2-oxo-2,3-dihydro-1H-benzo[d]imidazol-1-yl)methyl)cyclohexyl)-2-methylnicotinamide]
Cc1ncc(Cl)cc1C(=O)N[C@H]1CC[C@H](Cn2c(=O)n(-c3ccc(OC4CC4)nc3)c3ccccc32)CC1 [Example 113, 5-chloro-N-(4-((3-(6-cyclopropoxypyridin-3-yl)-2-oxo-2,3-dihydro-1H-benzo [d]imidazol-1-yl)methyl)cyclohexyl)-2-methylnico-tinamide]
